Measurements published in patent publication US6001851A, “HIV protease inhibitors” (Agouron Pharmaceuticals, Inc., priority 1998, dated 1999).
Like-named read-outs stand apart in the source and are kept apart here.

Key:
[1] = biological target: T1, HIV-1 protease (Q7S) (Human immunodeficiency virus type 1 group M subtype B, UniProt P03366, Q507S); assay: Tight-binding kinetics assay, HIV-1 protease inhibition (modified chromogenic assay); format: biochemical, HIV-1 (viral strain IIIB)
T1 construct: HIV-1 protease gene was isolated from the viral strain IIIB; made in house; host or cells: E. coli BL21(DE3), plasmid pGZ/HP-19Q7S#9
Experimental: Proteolytic activity of purified HIV-1 protease was measured using a modified chromogenic assay developed by Richards at al. (Richards, A. D. et al. J. Biol. Chem., 256, 773-7736 (1990)). […] The assay was carried out in 0.5 M NaCl, 50 mM MES pH 5.6, 5 mM DDT, and 2% DMSO at 37° C. Cleavage of the scissile bond between leucine and paranitro-phenylalanine (Phe para-NO2) was assayed by spectrophotometric monitoring of the decrease on absorbance at 305 nm.

[2] = tested on: HIV-1 IIIB; assay: Cell protection assay (MTT dye reduction): acute infection of MT-2 cells with HIV-1 IIIB; format: cell-based, HIV-1 strain IIIB (in human T cell line MT-2); conditions: for Therapeutic: therapeutic index TC50/ED50, MT-2 cells, 10080 min
Experimental: (§1) The CEM-SS and MT-2 human T cell lines and HIV-1 strains RF and IIIB were obtained from the AIDS Research and Reference Program, Division of AIDS, NIAID, and NIH.
(§2) The inhibitory effects of each agent on HIV-1 replication were measured by the MTT dye reduction method (Alley, M. C. et al., Cancer Res. 48: 589-601 (1988)). Compounds were dissolved in DMSO at a concentration of 40 mg/ml then diluted 1:200 in culture medium (RPMI, supplemented with 10% fetal bovine serum). From each diluted stock, 100 μl was added to a 96-well plate and serial half-log dilutions were prepared. In separate tubes, MT-2 cells and CEM-SS cells were infected with HIV-1 IIIB or HIV-1 RF at a multiplicity of infection (m.o.i.) of 0.01 and 0.03, respectively. Following a 4-hour adsorption period, […] of infected or uninfected cells were added to the wells of the drug containing plate to give a final concentration of 1×10^4 cells/well. Six days (CEM-SS cells) or 7 days (MT-2 cells) later, MTT (5 mg/ml) was added to test plates and the amount of formazan produced was quantified spectrophotometrically at 570 nm. Data were expressed as the percentage of formazan produced in drug-treated cells compared to formazan produced in wells of uninfected, drug-free cells. The EDS50 was calculated as the concentration of drug that increased the percentage of formazan production in infected, drug-treated cells to 50% of that produced by uninfected, drug-free cells. Cytotoxicity (TC50) was calculated as the concentration of drug that decreased the percentage of formazan produced in uninfected, drug-treated cells to 50% of that produced in uninfected, drug-free cells. The therapeutic index (TI) was calculated by dividing the cytotoxicity (TC50) by the antiviral efficacy (ED50).

[3] = Cytotoxicity in uninfected CEM-SS cells (MTT); format: cell-based; conditions: human
Experimental: as §1, §2

[4] = Cytotoxicity in uninfected MT-2 cells (MTT); format: cell-based; conditions: human
Experimental: as §1, §2

[5] = tested on: HIV-1 RF; assay: Cell protection assay (MTT dye reduction): acute infection of CEM-SS cells with HIV-1 RF; format: cell-based, HIV-1 strain RF (in human T cell line CEM-SS); conditions: for EC95: read-out: ED95; for Therapeutic index: TC50/ED50, CEM-SS cells, 8640 min
Experimental: as §1, §2

[6] = Metabolite obtained from the plasma of patients; format: in vivo; conditions: plasma of patients administered the N-t-butylcarboxamide methanesulfonic acid salt of U.S. Pat. No. 5,484,926
Text: A process for making compound 21 is provided below.

[7] = uninfected CEM-SS cells, 6 days, read-out: TC50
[8] = uninfected MT-2 cells, 7 days, read-out: TC50
[9] = Human immunodeficiency virus 1, MT2, 168 h, MT-2 cells, HIV-1 IIIB, m.o.i. 0.01, 7 days, read-out: ED50 (the source's name)
[10] = Human immunodeficiency virus 1, 144 h, CEM-SS cells, HIV-1 RF, m.o.i. 0.03, 6 days, read-out: ED50 (the source's name)
[11] = Human immunodeficiency virus 1, 144 h, CEM-SS cells, HIV-1 RF, m.o.i. 0.03, 6 days

Compound	Km ([1]; substrate, Q7S HIV-1 protease, 0.5 M NaCl, 50 mM MES pH 5.6, 2% DMSO, 37° C., read-out: Michaelis constant (Km))	EC50 ([2]; Human immunodeficiency virus 1, IIIB, MT2, 168 h, read-out: ED50)	Therapeutic ([2]; HIV-1 IIIB)	CC50 at 144 h [3, 7]	CC50 at 168 h [4, 8]	EC50 ([5]; Human immunodeficiency virus 1, CEM-SS, 144 h, read-out: ED50)	EC95 ([5]; Human immunodeficiency virus 1, CEM-SS, 144 h)	Therapeutic index ([5]; HIV-1 RF)	EC50 [2, 9]	Ki ([1]; tight binding kinetics, 200 uM substrate, pH 5.6, 37° C., Morrison fit)	obtained as a metabolite [6]	EC50 [5, 10]	EC95 [5, 11]	CC50 at 144 h ([3]; cem-ss cells)	CC50 at 168 h ([4]; mt-2 cells)
His-Lys-Ala-Arg-Val-Leu-Phe(paraNO2)-Glu-Ala-Nle-Ser-NH2	59 ± 17 µM	–	–	–	–	–	–	–	–	–	–	–	–	–	–
Cc1cn([C@H]2C[C@H](N=[N+]=[N-])[C@@H](CO)O2)c(=O)[nH]c1=O [AZT, azidothymidine]	–	431 nM	254	> 374000 nM	109000 nM	52.3 nM	543 nM	> 7161	–	–	–	–	–	–	–
Cc1c(O)cccc1C(=O)NC(CSc1ccccc1)C(O)CN1CC2CCCCC2CC1C(=O)NC(C)(C)CO (stereo not drawn) [Compound 21, [3S-[2(2S*,3S*),3 alpha,4abeta,8abeta]]-N-(1,1-dimethyl-2-hydroxyethyl)decahydro-2-[2-hydroxy-3-[(3-hydroxy-2-methylbenzoyl)amino]-4-(phenylthio)butyl]-3-isoquinolinecarboxamide]	–	–	1082	96600 nM	92600 nM	–	–	2825	85.6 nM	5.6 ± 0.91 nM	obtained as a metabolite from the plasma of patients	34.2 nM	154 nM	–	–
Nc1ccn([C@H]2CC[C@@H](CO)O2)c(=O)n1 [ddC, dideoxycytidine]	–	–	30	–	–	–	–	398	5920 nM	–	–	94.7 nM	142 nM	37700 nM	176000 nM
